# Data reported in US9283277B2, “Methods and compositions for the treatment of obesity” (Children's Medical Center Corporation, priority 2008, dated 2016).
# How the values were obtained:
# [1] = test system: LepRB signaling (LepRB, Jak2, Stat3); test: Leptin receptor signaling in LepRB-expressing 293 cells under tunicamycin-induced ER stress; assay type: cell-based, Human; conditions: then leptin 100 ng/ml 45 minutes
# From the text: The leptin receptor belongs to the interleukin 6 (IL-6) receptor family of class I cytokine receptors^30. […] Binding of leptin to LepRb initiates a conformational change that leads to trans-autophosphorylation and activation of LepRb-associated Jak2^31,32 Activated Jak2 then phosphorylates the tyrosine residues within the LepRb/Jak2 complex to mediate downstream signaling. […] To examine whether UPR might alter the leptin signaling, LepRB-expressing 293 cells were first exposed to tunicamycin (3 μg/ml) to activate ER stress for a period of 4 hours and then treated with leptin (100 ng/ml) for 45 minutes. […] Finally, as a downstream element, leptin-stimulated Stat3 activation was analyzed.
# [2] = test system: insulin receptor (IR); test: Insulin receptor activation in LepRB-expressing 293 cells after tunicamycin; assay type: cell-based, Human; conditions: tunicamycin 3 μg/ml five hours, insulin 100 nM five minutes
# Experimental: To exclude the possibility that LepRB-expressing 293 cells become dysfunctional due to a possible toxicity generated by tunicamycin, we investigated the insulin receptor (IR) activation by stimulating the cells with insulin (100 nM) for five minutes after five-hour tunicamycin (3 μg/ml) treatment.
# [3] = test system: LepRB; test: LepRB membrane translocation (immunofluorescence) and leptin-binding assay in 293 cells; assay type: cell-based, Human
# Experimental: Considering the fact that LepRB is folded in the ER, we investigated whether ER stress blocks leptin receptor translocation to the membrane from the ER and whether this could be a reason for the blockade of leptin signaling. We stimulated the 293 cells with tunicamycin for five hours (3 μg/ml) and analyzed leptin receptor levels in the plasma membrane by immunofluoresence staining. It was observed that LepRB folding is still preserved and its translocation to the membrane is not decreased in ER stress conditions. Next, we performed leptin-binding assays in DMSO and tunicamycin-treated cells to exclude the possibility of a defect in binding of leptin to LepRB.
# [4] = test system: hypothalamus of lean mice; test: Tunicamycin infusion to the third ventricle of lean mice; assay type: in vivo
# From the text: Having shown that ER stress is increased in the hypothalamus of HFD-fed mice and causes leptin resistance in the cellular systems, we sought to investigate whether leptin action could also be blocked by directly inducing ER stress in brains of lean mice.
# Next, we investigated the expression patterns of leptin resistance markers such as neuropeptide Y (NPY) and agouti related peptide (AgRP) in the vehicle- and tunicamycin-infused mice. […] In addition, to exclude the possibility that tunicamycin infusion leads to a decay in mRNA degradation of NPY and AgRP due to a possible toxic effect, we analyzed mRNA levels of IR and insulin receptor substrate 1 (IRS1).
# To assess whether increased ER stress and activation of UPR signaling would create leptin resistance and block the leptin-stimulated Stat3 activation in the hypothalamus, leptin (1 mg/kg/day) was intraperitoneally administered 5½ hours after tunicamycin infusion. The experiment was ended by dissection of the hypothalami 30 minutes after leptin administration. […] In contrast, administration of tunicamycin to the third ventricle and creation of ER stress, in complete accordance with our data obtained from 293 cells, blocked activation of Stat3 in the hypothalamus (data not shown).
# [5] = test system: LepRB signaling (LepRB, Jak2, Stat3); test: Tunicamycin dose curve and time course in Ad-LacZ, Ad-XBP1s or Ad-ATF6n infected LepRb-expressing 293 cells; assay type: cell-based, Human
# From the text: To determine whether exogenous expression of XBP1s and a consequent increase in ER folding capacity would enhance leptin receptor signaling, we generated an XBP1s-encoding adenovirus (Ad-XBP1s) and also a LacZ-expressing adenovirus (Ad-LacZ) as a control. Infection of mouse embryonic fibroblasts (MEFs) with Ad-XBP1s increased the protein level of XBP1s (data not shown). To test whether the expressed XBP1s was functional, we co-infected cells with Ad-XBP1s and a luciferase reporter gene-driven by an ERSE. […] ERDJ4 is a chaperone and involved in folding of ER proteins. […] After showing that Ad-XBP1s is functional and can increase ER folding capacity, we subsequently overexpressed the XBP1s in the LepRb-expressing 293 cells and performed two sets of experiments. In the first, we asked whether XBP1s overexpression could enhance the leptin-stimulated tyrosine phosphorylation of LepRb and increase the ability of the cells withstand to the ER stress-mediated blockade of LepRb activation. For this purpose we stimulated the 293 cells with increasing doses of tunicamycin (0.001, 0.01, 0.05, 0.1 and 1 μg/ml) for 5 hours and analyzed leptin-stimulated LepRb activation. In Ad-LacZ infected cells, LepRb activation was blocked at tunicamycin doses of 0.01 μg/ml and higher (data not shown). […]
# [6] = tunicamycin 3 μg/ml (or DMSO) 4 hours
substance,measurement,setting,value
tunicamycin,leptin-stimulated Jak2 tyrosine phosphorylation,[1]; tunicamycin 3 μg/ml 4 hours,reduced to an undetectable level
same,leptin-induced Stat3 phosphorylation (Tyr705),[1]; [6],totally abolished
same,leptin-stimulated LepRB tyrosine phosphorylation,[1]; [6],completely inhibited
same,insulin-stimulated IR tyrosine phosphorylation,[2],did not change
same,LepRB translocation to the plasma membrane,"[3]; 293 cells, tunicamycin 3 μg/ml five hours, immunofluorescence",not decreased
same,leptin binding to LepRB,[3]; tunicamycin-treated vs DMSO-treated cells,significantly increased
same,Stat3 phosphorylation (activation) in the hypothalamus,"[4]; leptin 1 mg/kg IP 5½ hours after third ventricle tunicamycin or vehicle infusion, 30 minutes after leptin",blocked
same,POMC mRNA levels in hypothalamus,[4]; third ventricle infusion,did not show any significant difference
same,acute food intake,[4]; third ventricle infusion,significantly increased
same,hypothalamic mRNA levels of IR and IRS1,[4]; third ventricle infusion,does not lead to a change
same,mRNA levels of NPY and AgRP in hypothalamus,[4]; third ventricle infusion,significant increase
same,"mRNA levels of ER stress-responsive genes (XBP1s, CHOP, ERDJ4) in hypothalamus","[4]; third ventricle infusion, twelve hours after infusion",significantly upregulated
same,"time until leptin-stimulated LepRb, Jak2 activation and Stat3 tyrosine phosphorylation are blocked","[5]; Ad-LacZ infected 293 cells, tunicamycin 0.05 μg/ml",≤ 2 h
same,CHOP mRNA expression,"[5]; tunicamycin 0.01 and 0.05 μg/ml, five hours",upregulates
